Assay results from the NIST ThermoML archive (doi:10.1016/j.jct.2019.03.032).

Settings: Metastable liquid, Gas chromatography

CC(C)=CCC/C(C)=C/CC/C(C)=C/CC/C=C(\C)CC/C=C(\C)CCC=C(C)C
Settings | vapor or sublimation pressure [kPa]
298.15 K | 3.7e-10
310 K | 3.1e-09
320 K | 1.6e-08
330 K | 7.5e-08
340 K | 3.1e-07
350 K | 1.2e-06
360 K | 3.9e-06
370 K | 1.2e-05
380 K | 3.5e-05
390 K | 9.3e-05
400 K | 0.00023
410 K | 0.00055
420 K | 0.0012
430 K | 0.0026
440 K | 0.0053
450 K | 0.01
460 K | 0.019
470 K | 0.035
480 K | 0.061
490 K | 0.1
500 K | 0.17
510 K | 0.27
520 K | 0.42
530 K | 0.63
540 K | 0.94
550 K | 1.4
560 K | 2
570 K | 2.8
580 K | 3.8
590 K | 5.1
600 K | 6.9
709.1 K | 101.33

CC(C)CCCC(C)CCCC(C)CCCCC(C)CCCC(C)CCCC(C)C (centres undefined) [2,6,10,15,19,23-hexamethyltetracosane]
Settings | vapor or sublimation pressure [kPa]
298.15 K | 1.5e-09
310 K | 1.2e-08
320 K | 5.9e-08
330 K | 2.6e-07
340 K | 1e-06
350 K | 3.5e-06
360 K | 1.1e-05
370 K | 3.4e-05
380 K | 9.2e-05
390 K | 0.00024
400 K | 0.00057
410 K | 0.0013
420 K | 0.0028
430 K | 0.0059
440 K | 0.012
450 K | 0.022
460 K | 0.04
470 K | 0.071
480 K | 0.121
490 K | 0.2
500 K | 0.32
510 K | 0.51
520 K | 0.78
530 K | 1.2
540 K | 1.7
550 K | 2.5
560 K | 3.5
570 K | 4.8
580 K | 6.6
590 K | 8.9
600 K | 12
686.4 K | 101.33
